Experimental data: patent US20220015365A1, “SYNERGISTIC HERBICIDE COMPOSITION OF BROAD-SPECTRUM FOR THE CONTROL OF WEEDS IN AGRICULTURAL CULTURES, USE OF SUCH COMPOSITION FOR PREPARATION OF PRODUCT, PRODUCT AND METHOD OF APPLICATION” (priority 2018, published 2022)

Experiments:
Brachiaria decumbens = test: Pre-emergence weed control in soil prepared with weed seeds, synergy by Colby equation; type: in vivo; conditions: 35 days after application
Description: (§1) Protocol: in soil prepared with weed seeds (without germination), the composition of the present invention was applied. This test was performed for two species of weeds: Brachiaria decumbens and Panicum maximum. Data were collected 35 days after application of the composition to the soil and calculated. […] Colby equation: to use Colby's approach to evaluate synergy or antagonism in combinations, the components of the combination should be tested individually in their concentration of components in the same study as the combination. The results observed for the combination are compared with the expected results of the Colby Equation (Colby, 1967). Note that this equation is derived from the definition of the probability of independence. […] […].2. Criteria of the analysis: • If the value observed is higher than expected (Obs>E): synergy; • If the value observed is lower than expected (Obs<E): antagonism.

Panicum maximum = test: as above; type: in vivo; conditions: 35 days after application
Description: as §1

In the case of `CC(C)c1nn(C(=O)NC(C)(C)C)c(=O)n1N` [Amicarbazone, 4-Amino-N-(tert-butyl)-3-isopropyl-5-oxo-4,5-dihydro-1H-1,2,4-triazole-1-carboxamide], the “Control % BRADC Observed” value (Brachiaria decumbens; Amicarbazone 238.00 g ai/ha) is reported as 52.50%, the “Control % BRADC Observed” value (Brachiaria decumbens; Amicarbazone 442.00 g ai/ha) is reported as 66.25% and the “Control % BRADC Observed” value (Brachiaria decumbens; Amicarbazone 515.60 g ai/ha) is reported as 62.50%. For the same compound, the “Control % BRADC Observed” value (Brachiaria decumbens; Amicarbazone 571.15 g ai/ha) was 77.50%, the “Control % PANMA Observed” value (Panicum maximum; Amicarbazone 238.00 g ai/ha) was 83.25% and the “Control % PANMA Observed” value (Panicum maximum; Amicarbazone 317.30 g ai/ha) was 75.00%. The “Control % PANMA Observed” value (Panicum maximum; Amicarbazone 442.00 g ai/ha) was 0.00%, the “Control % PANMA Observed” value (Panicum maximum; Amicarbazone 515.60 g ai/ha) was 90.00% and the “Control % PANMA Observed” value (Panicum maximum; Amicarbazone 571.15 g ai/ha) was 91.25%. The “Control % PANMA Observed” value (Panicum maximum; Amicarbazone 589.30 g ai/ha) was 90.00%, the “Control % PANMA Observed” value (Panicum maximum; Amicarbazone 594.00 g ai/ha) was 86.25% and the “Control % PANMA Observed” value (Panicum maximum; Amicarbazone 687.50 g ai/ha) was 95.00%. For the same compound, the “Control % PANMA Observed” value (Panicum maximum; Amicarbazone 761.54 g ai/ha) was 98.25% and the “Control % PANMA Observed” value (Panicum maximum; Amicarbazone 792.00 g ai/ha) was 88.75%.

For `C#CCN1C(=O)COc2cc(F)c(N3C(=O)C4=C(CCCC4)C3=O)cc21` [Flumioxazin, N-(7-Fluor-3,4-dihydro-3-oxo-4-prop-2-inyl-2H-1,4-benzoxazin-6-yl)cyclohex-1-en-1,2-dicarboximide], the “Control % BRADC Observed” value (Brachiaria decumbens; Flumioxazin 47.60 g ai/ha) was 81.25%, the “Control % BRADC Observed” value (Brachiaria decumbens; Flumioxazin 103.10 g ai/ha) was 83.75% and the “Control % BRADC Observed” value (Brachiaria decumbens; Flumioxazin 176.80 g ai/ha) was 92.75%. For the same compound, the “Control % BRADC Observed” value (Brachiaria decumbens; Flumioxazin 380.00 g ai/ha) was 90.00%, the “Control % PANMA Observed” value (Panicum maximum; Flumioxazin 24.75 g ai/ha) was 81.25% and the “Control % PANMA Observed” value (Panicum maximum; Flumioxazin 33.00 g ai/ha) was 88.75%. The “Control % PANMA Observed” value (Panicum maximum; Flumioxazin 47.60 g ai/ha) was 89.50%, the “Control % PANMA Observed” value (Panicum maximum; Flumioxazin 63.46 g ai/ha) was 97.00% and the “Control % PANMA Observed” value (Panicum maximum; Flumioxazin 103.10 g ai/ha) was 98.75%. For the same compound, the “Control % PANMA Observed” value (Panicum maximum; Flumioxazin 137.50 g ai/ha) was 97.50%, the “Control % PANMA Observed” value (Panicum maximum; Flumioxazin 176.80 g ai/ha) was 97.55% and the “Control % PANMA Observed” value (Panicum maximum; Flumioxazin 235.70 g ai/ha) was 99.00%. The “Control % PANMA Observed” value (Panicum maximum; Flumioxazin 380.00 g ai/ha) was 97.50% and the “Control % PANMA Observed” value (Panicum maximum; Flumioxazin 507.70 g ai/ha) was 98.75%.
